Measurements: patent US20110144128A1, “Heterocyclic Carboxamide Compounds as Steroid Nuclear Receptors Ligands” (EXELIXIS, INC., priority 2005, published 2011)

How the values were obtained:
human MR = target: T1, human MR (Homo sapiens, UniProt P08235); assay: GAL4-MR cell based assay, antagonist format
T1 construct: expressed in transfected cells; host or cells: CV-1 (African Green Monkey Kidney Cells), transiently transfected with pCMX-GAL4-MR
T1 sequence (P08235 671-984): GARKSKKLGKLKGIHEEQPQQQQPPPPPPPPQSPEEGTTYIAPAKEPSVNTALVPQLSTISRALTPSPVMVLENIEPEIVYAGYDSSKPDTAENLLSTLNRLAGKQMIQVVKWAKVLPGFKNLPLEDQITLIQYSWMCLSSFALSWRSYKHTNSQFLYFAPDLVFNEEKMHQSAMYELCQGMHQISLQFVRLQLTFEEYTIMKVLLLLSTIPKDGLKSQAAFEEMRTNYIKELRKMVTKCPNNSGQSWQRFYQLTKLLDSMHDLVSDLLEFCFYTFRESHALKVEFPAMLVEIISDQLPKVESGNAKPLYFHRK
Experimental: Compound activity was determined in a cell-based assay using a GAL4-MR chimera to identify compounds with the ability to modulate MR activity.
The pCMX-GAL4-MR expression plasmid was constructed by cloning nucleotides encoding amino acids 671 to 984 of human MR (see GenBank sequence AAA59571) into the vector pCMX-GAL4 (Perlmann et al., 1993,Genes & Development 7:1411-1422) comprising nucleotides encoding for amino acids 1-147 of the GAL4 DNA binding domain.
The TK-MH 100x4-Luc (GAL4UAS-TK-Luciferase) reporter construct was constructed by insertion of four copies of the Gal4 UAS (Kang et al. 1993, J. Biol. Chem. 268:9629-9635) into the Hind III site of TK-Luc. The parental plasmid, TK-Luc, was prepared by insertion of the Herpes simplex virus thymidine kinase gene promoter (−105 to +51) obtained from the plasmid pBLCAT2 by digestion with HindIII and XhoI (described in Luckow et al., 1987, Nuc. Acid. Res. 15:5490) into the plasmid MMTV-LUC described by Hollenberg and Evans, 1988, Cell 55:899-906) after removal of MMTV-LTR promoter sequence from MMTV-LUC via digestion with HindIII and XhoI. Correct cloning was confirmed by restriction digestion and/or sequencing.
Assays were performed using CV-1 (African Green Monkey Kidney Cells) (ATCC) cells grown in T175 flasks at a density of 3×10^6 cells/flask in DMEM with 5% FBS. Cells were transfected one day after plating at 70-80 percent confluency with a DNA mixture containing (per T175 flask) 9 […] pCMX-GAL4-MR, 9 μg TK-MH100x4-Luc, and 2 μg pCMX β-Gal using the transfection reagent FuGENE6 (Roche Molecular Biochemicals, Indianapolis, Ind.) following recommended protocols and instructions provided by the manufacturer, and incubated with transfection reagents for 5 hours at 37° C.
Transfected cells were trypsinized, resuspended in media, and 45 μL was added to assay plates at a density of approximately 5,000 cells/well using a MultiDrop dispenser (MTX Lab Systems, Inc., VA). The assay plates containing both compounds and screening cells were incubated for approximately 20 hours at 37° C. and 5% CO2 in a tissue culture incubator.
After incubation of the transfected cells with compounds, Lysis buffer (1% Triton X-100, 10% Glycerol, 5 mM DTT, 1 mM EGTA, 25 mM Tricine, pH 7.8) and Luciferin assay buffer (0.73 mM ATP, 22.3 mM Tricine, 0.11 mM EDTA, 33.3 mM DTT, 0.2M MgSO4, 11 mM Luciferin, 6.1 mM Coenzyme A, 0.01 mM HEPES, pH 7.8) were prepared. Media was removed from the plates and lysis buffer and luciferin assay buffer mixed in a 1:1 ratio and then 30 μl of the mixture was added to each well using a Multidrop dispenser. Plates were read on the Northstar (Applied Biosystems, Foster City, Calif.) and data was analyzed using ActivityBase (ID Business Solutions, Ltd., Guildford, Surrey, UK). If required, luciferase values may be normalized for transfection efficiency by measuring β-galactosidase activity based on expression from the pCMX-βGal expression plasmid as described previously (Willy et al., 1995, Gene & Development, 9:1033-1045).
(§1) The following table provides in vitro MR activity data of representative compounds described in the Examples. […] The “+” mark under the selectivity column is given to those compounds having greater than ten-fold antagonist activity against MR compared to at least one nuclear receptor selected from AR, ERα, GR and PR, as determined from the GAL4-AR, GAL4-ERα, GAL4-GR and GAL4-PR assays. The “++” mark under the selectivity column identifies those compounds having greater than ten-fold antagonist activity against MR compared to the four nuclear receptors AR, ERα, GR and PR, as determined from the GAL4-AR, GAL4-ERα, GAL4-GR and GAL4-PR assays.

AR, ERα, GR and PR = assay: selectivity assays GAL4-AR, GAL4-ERα, GAL4-GR and GAL4-PR, antagonist mode; format: cell-based; settings: antagonist activity against MR compared to AR
Experimental: In certain cases, compounds were also evaluated for activity in selectivity assays with other steroid hormone receptor members, including AR, ER, GR and PR, as well as GAL4 alone. Steroid receptors used for selectivity assays were essentially generated as described above for pCMX-GAL4-MR, and comprised the LBD and a portion of the hinge region of the nuclear receptor of interest cloned in frame into the vector pCMX-GAL4 (Perlmann et al., 1993,Genes & Development 7:1411-1422) as described above.
Assays run in antagonist mode included agonists as follows: AR; 25 nM dihydrotestosterone (DHT), ER; 4.5 nM estradiol, GR; 20 nM dexamethasone, and PR; 2 nM medroxyprogesterone (MPA), respectively. Assays run in agonist mode contained no supplemental compounds.
as §1

Row | Structure (SMILES) | IC50 (human MR) [nM] | Selectivity (AR, ERα, GR and PR)
1 | CCNS(=O)(=O)c1ccc(NC(=O)c2cc(C)n(-c3ccccc3C(F)(F)F)c2C)cc1 [2,5-dimethyl-1-[2-(trifluoromethyl)phenyl]-1H-pyrrole-3-carboxylic acid (4-ethylsulfamoyl-phenyl)-amide] | 1000 to 5000 | + (greater than ten-fold antagonist activity against MR compared to at least one nuclear receptor selected from AR, ERα, GR and PR)
2 | CCc1nc(C(=O)Nc2ccc(S(C)(=O)=O)cc2)c(C)n1-c1ccccc1C(F)(F)F [2-ethyl-5-methyl-1-(2-trifluoromethyl-phenyl)-1H-imidazole-4-carboxylic acid (4-methanesulfonyl-phenyl)-amide] | < 500 | ++ (greater than ten-fold antagonist activity against MR compared to the four nuclear receptors AR, ERα, GR and PR)
3 | Cc1[nH]c(C(=O)Nc2ccc(S(C)(=O)=O)cc2)c(C)c1-c1ccccc1C(F)(F)F [3,5-dimethyl-4-(2-trifluoromethyl-phenyl)-1H-pyrrole-2-carboxylic acid (4-methanesulfonyl-phenyl)-amide] | < 500 | ++ (greater than ten-fold antagonist activity against MR compared to the four nuclear receptors AR, ERα, GR and PR)
4 | Cc1c(C(=O)Nc2ccc(S(C)(=O)=O)cc2)cc(-c2ccc(F)cc2)n1-c1ccccc1C(F)(F)F [5-(4-fluorophenyl)-2-methyl-1-(2-trifluoromethylphenyl)-1H-pyrrole-3-carboxylic acid (4-methanesulfonyl-phenyl) amide] | < 500 | ++ (greater than ten-fold antagonist activity against MR compared to the four nuclear receptors AR, ERα, GR and PR)
